Data on one compound can be found in patent US11590156B2, “RNAi agents for hepatitis B virus infection” (Arrowhead Pharmaceuticals, Inc., priority 2016, dated 2023).

Assay [1] concerns HBV genotype C; serum HBV DNA. The assay can be described thus: Serum HBV DNA levels in HBV-infected humanized FRG model mice. It counts as in vivo, FRG mice transplanted with human hepatocytes. Particulars: for Serum HBV DNA levels normalized to the average of pre-treatment day −10 and day −3: PBS (no RNAi agent), oral daily gavage 0.01 mg/kg Entecavir from day 1. As for the experimental part: iv) Serum HBV DNA levels: Equal volumes of serum from mice in a group or subgroup were pooled to a final volume of 100 μL. DNA was isolated from serum samples using the QIAamp MinElute Virus Spin Kit (Qiagen, Valencia, Calif.) following the manufacturer's instructions. Sterile 0.9% saline was added to each sample to a final volume of 200 μL. Serum samples were added to tubes containing buffer and protease. Carrier RNA was added to aid in the isolation of small amounts of DNA. […] After incubating 15 min at 56° C., nucleic acids were precipitated from the lysates with ethanol and the entire solution applied to a column. After washing, the samples were eluted into a volume of 50 μL Buffer AVE.
The number of copies of HBV genomes in DNA isolated from the pHBV mouse model serum was determined by qPCR. Plasmid pSEAP-HBV353-777, encoding a short segment of the HBV genome within the S gene (bases 353-777 of GenBank accession #V01460), was used to create a six log standard curve. Samples with recovery of DNA below 2 standard deviations from the average, based on detection of pHCR/UbC-SEAP were omitted. TaqMan chemistry-based primers and probes with fluor/ZEN/IBFQ are utilized.
qPCR assays were performed on a 7500 Fast or StepOne Plus Real-Time PCR system (Life Technologies). For evaluation of HBV DNA in serum, DNA was isolated from singlet or duplicate purification steps from pooled group serum samples. Quantitations of HBV DNA and recovery control plasmid were determined by qPCR reactions performed in triplicate. The probes to quantitate HBV and pHCR/UbC-SEAP were included in each reaction.
For this study, Male FRG® (genotype Fah −/−/Rag2−/−/Il2rg −/− triple knockout mice on a C57BL/6 background (Yecuris) were transplanted with human hepatocytes when they were 1-2 months old. The human hepatocytes were allowed to repopulate the liver for approximately 6 months with periodic NTBC treatment to discourage growth of mouse hepatocytes. At 9 months of age the mice were given an intravenous inoculation of 4×10^8 genomes/kg HBV genotype C, which infected the human hepatocytes. After 2-3 months, serum HBV DNA levels reached a plateau indicating the human hepatocytes were maximally infected (mouse hepatocytes cannot be infected by HBV). Mice were one year old at the start of treatment with HBV RNAi agents, thus nearing the end of their life span.
Pre-treatment serum samples were taken on day −10 and day −3. Beginning on day 1, each mouse was administered an oral daily gavage with 0.01 mg/kg Entecavir dissolved in water to inhibit HBV replication. Daily dosing of Entecavir continued until the day mice were euthanized. Entecavir administration was expected to reduce serum HBV DNA in chronically infected human patients, but not reduce HBsAg.
Each mouse was also given a subcutaneous administration of 100 μl per 20 grams body weight containing the amount of HBV RNAi agent(s) formulated in phosphate buffered saline, or an equal volume of phosphate buffered saline without an HBV RNAi agent, on day 1 and on day 29 (if still alive on day 29), pursuant to the schedule as set forth in Table 47, directly above. […] The injections were performed between the skin and muscle (i.e. subcutaneous injections) into the loose skin over the neck and shoulder area.
Additionally, serum HBV DNA levels were determined from serum samples collected on days −10, −3, 8, 15, 22, 29, 36, and 40, pursuant to the procedure set forth in Example 2, above.

Assay [2] relates to HBV genotype C; serum HBsAg. The assay can be described thus: Serum HBsAg levels in HBV-infected humanized FRG model mice. It counts as in vivo, FRG mice transplanted with human hepatocytes. The following applies: mouse A-1; PBS (no RNAi agent); oral daily gavage 0.01 mg/kg Entecavir from day 1; Day 8. As for the experimental part:
ii) Serum Hepatitis B surface antigen (HBsAg) levels: Serum was collected and diluted 10 to 8000-fold in PBS containing 5% nonfat dry milk. Secondary HBsAg standards diluted in the nonfat milk solution were prepared from serum of ICR mice (Harlan Sprague Dawley) that had been transfected with 10 μg HBsAg-expressing plasmid pRc/CMV-HBs (Aldevron, Fargo, N. Dak.). HBsAg levels were determined with a GS HBsAg EIA 3.0 kit (Bio-Rad Laboratories, Inc., Redmond, Wash.) as described by the manufacturer. Recombinant HBsAg protein, ayw subtype, also diluted in nonfat milk in PBS, was used as a primary standard (Aldevron). […]
Serum was collected on day 8, day 15, day 22, day 29, day 36, and day 40 and serum Hepatitis B surface antigen (HBsAg) levels were determined pursuant to the procedure set forth in Example 2, above.

With `C=C1[C@H](CO)[C@@H](O)C[C@@H]1n1cnc2c(=O)[nH]c(N)nc21` [Entecavir], the “viral replication (serum HBV DNA)” value in assay [1] (Example 18, 0.01 mg/kg Entecavir oral daily gavage) was “reduced viral replication in both the absence and presence of HBV RNAi agents”. For the same compound, the “Serum HBV DNA levels normalized to the average of pre-treatment day −10 and day −3” value was found to be 0.072 in assay [1] (mouse A-1, Day 8); 0.038 in assay [1] (mouse A-1, Day 15); 0.015 in assay [1] (mouse A-1, Day 22); 0.027 in assay [1] (mouse A-1, Day 29); 0.060 in assay [1] (mouse A-1, Day 36); 0.130 in assay [1] (mouse A-2, Day 8). Moreover, the “Serum HBV DNA levels normalized to the average of pre-treatment day −10 and day −3” value in assay [1] (mouse A-2, Day 15) came to 0.075. The “Average HBsAg levels normalized to pre-treatment (day −3)” value in assay [2] is on record as 0.830.
